From patent US20120251495A1, “PTERIN BASED THERAPIES FOR INFLAMMATORY CONDITIONS” (priority 2008, published 2012)

Tests used:
plasma cytokines [1] = test: Plasma cytokine levels (multiplex and single ELISA kits), 2nd experiment; assay type: in vivo, athymic nude mice; conditions: for IL-5: limit of detection 3.0; for IFN-γ / IL-4 / IL-12: limit of detection 3.2; for IL-6: limit of detection 3.9; for IL-1β: limit of detection 4.1
Procedure: Cytokine levels in EDTA plasma from the mice in the 2nd experiment were measured at the UCSD Core Laboratory (San Diego, Calif.) using a multiplex assay kit for IL-1β, IL-2, IL-4, IL-5, IL-10, IL-12, IFN-γ, TNF-α and single ELISA kits for IL-6 and TGF-β1 by R&D Systems. […] For both the 1st and 2nd experiments, those measured cytokine values falling below the limits of detection were set to the higher assay limit for the purposes of the subsequent statistical analyses, and recorded as n.d. (not detectable) in Tables 1 through 3.

[2] = Theoretical body fluid level calculated from dose; conditions: 69 mg/kg ÷ 0.7 L/kg ÷ 454.4 mg/mmol; mouse
Procedure: DCP at the highest dose tested in mice in this study, 69 mg/kg, yields the following theoretical body fluid level: [DCP]fluid=69 mg/kg÷0.7 L/kg÷454.4 mg/mmol=220 μM.

IDO = test: Serum tryptophan and kynurenine in HBV transgenic mice; assay type: in vivo
Procedure: (§1) Experimental design. DCP was administered per os, once daily for 14 days to randomly assigned HBV transgenic mice at 23, 7.3, and 2.3 mg/(kg d). ADV was used as a positive control at 10 mg/(kg d) using the same treatment schedule and vehicle (0.4% CMC). On day 14, mice were euthanized to collect serum and liver samples to perform liver HBV DNA, liver core and serum HBe assays, serum cytokine/chemokine profiles, and IDO metabolite assays.
Tryptophan and kynurenine measurements. Tryptophan (Trp) and kynurenine (Kyn) measurements were carried out as previously described (Widner B, Werner E R, Schennach H, Wachter H & Fuchs D. Simultaneous measurement of serum tryptophan and kynurenine by HPLC. Clin Chem 1997; 43:2424-2426). Kyn/Trp ratios were calculated for each mouse as an estimate of IDO activity.

[3] = system: serum cytokines/chemokines; test: Serum cytokine/chemokine array in HBV transgenic mice; assay type: in vivo
Procedure: as §1
Liver or serum cytokine/chemokine array. Liver samples were prepared for the Q-Plex™ mouse cytokine/chemokine array (Quansys Biosciences, Logan, Utah) as described previously (Morrey J D, Molter N E, Taro B, Lay M & Fairman J. Efficacy of cationic lipid-DNA complexes (CLDC) on hepatitis B virus in transgenic mice. Antiviral Res 2008; 79:71-79).

[4] = system: MDA-MB-231 human breast tumor xenographs; test: Antitumor efficacy in nude mice with MDA-MB-231 xenographs, 2nd experiment; assay type: in vivo, athymic nude mice
Procedure: In the 2nd experiment, twenty-nine athymic nude, also purchased from Harlan Sprague Dawley, Inc. (Indianapolis, Ind.), were each injected subcutaneously with 10×10^6 MDA-MB-231 cancer cells into the right flank. When tumors reached 3-5 mm in size, the mice were divided into five treatment groups of five each and a control group of four mice. […] All the other mice in the 2nd experiment persisted ≧43 days without complications. Experimental groups were treated by oral gavage once daily with the indicated test suspensions or solutions.
The control mice in the 1st experiment were treated with sterile water while the control mice in the 2nd experiment were untreated to evaluate the effect of mouse handling and gavaging upon tumor growth. Daily dosing was for 7 days per week. Animals were restrained but not anesthetized for oral dosing. Tumors were measured twice weekly with calipers and body weights taken twice weekly on the day of tumor measurements. Blood was collected from all animals via cardiac puncture at termination (after 70 to 98 days of treatment) and processed to EDTA plasma for analysis.
The MDA-MB-231 human breast tumor cell lines were supplied by SRI International (Menlo Park, Calif.) and propagated using standard in vitro cell expansion methods. Briefly, cells were grown in L-15 media from Gibco (Cat. No. 11415-064) supplemented with 2 mM L-Glutamine and 10% Fetal Bovine Serum (FBS). The cells were cultured in an incubator with 5% CO2, 37.5° C., and 80% humidity. Cells were harvested with 0.25% (w/v) Trypsin-0.03% (w/v) EDTA solution. Cells were prepared for injection by standard methods to appropriate concentrations. Animals were temporarily restrained but not anesthetized for the inoculation of the tumor cells. Animals were subcutaneously injected with the tumor cells in a 100-200 μl volume.
Each animal was individually tracked for tumor growth by external caliper measurements of protruding tumor. Primary tumor sizes were measured using calipers and an approximate tumor volume calculated using the formula 1/2 (a×b^2), where b was the smaller of two perpendicular diameters.
For each group, the mean and standard error of the mean (SEM) of the ratio V/Vo, Relative Tumor Volume (RTV), were plotted as a function of treatment time after inoculation. V0 was the tumor volume at Day 0, when treatment began.

plasma cytokines [5] = test: Plasma cytokine levels by ELISA (LINCOplex), 1st experiment; assay type: in vivo, athymic nude (nu/nu) mice; conditions: for IL-10: limit of detection 24.6
Procedure: Cytokine levels in EDTA plasma from the mice in the 1st experiment were determined by ELISA assay at Alta Analytical Laboratories (San Diego, Calif.) using a LINCOplex Kit (Linco Research). Tryptophan (Trp) and kynurenine (Kyn) concentrations were measured from EDTA plasma samples by high pressure liquid chromatography (HPLC) using 3-nitro-L-tyrosine as the internal standard (Widner et al., 1997). To estimate IDO activity, the kynurenine to tryptophan ratio (Kyn/Trp) was calculated and expressed as μmol kynurenine/mmol tryptophan (Wirleitner, 2003). The values from five mice in the 1st experiment are not included in the summary statistics given in Table 1 for the following reasons. One mouse from each of the four treatment groups was used to test the effects of mega dosing, i.e., with (1:4 mol:mol) calcium pterin at 100 mg/kg/day after Day 60 of treatment, and are excluded. Also excluded was one mouse from the (1:4 mol:mol) calcium pterin (7 mg/kg/day) group which expired suddenly a few days before blood was collected. Cytokine measurements <3.2 pg/ml are reported as n.d. (not detectable) because the standard curves used in the ELISA assays were not calibrated below that level.
Cytokine levels in EDTA plasma from the mice in the 1st experiment were determined by ELISA assay at Alta Analytical Laboratories (San Diego, Calif.) using a LINCOplex Kit (Linco Research).
Cytokine levels in EDTA plasma from the mice in the 2nd experiment were measured at the UCSD Core Laboratory (San Diego, Calif.) using a multiplex assay kit for IL-1β, IL-2, IL-4, IL-5, IL-10, IL-12, IFN-γ, TNF-α and single ELISA kits for IL-6 and TGF-β1 by R&D Systems. EDTA plasma samples from two of the three ungavaged controls were lost due to handling error. For both the 1st and 2nd experiments, those measured cytokine values falling below the limits of detection were set to the higher assay limit for the purposes of the subsequent statistical analyses, and recorded as n.d. (not detectable) in Tables 1 through 3.

[6] = HBV mice generally, 2.3-23.0 mg/(kg day)
[7] = Table 4, 7 mg/kg/d, limit of detection 3.2
[8] = Table 4, 21 mg/kg/d, limit of detection 3.2

## Nc1nc([O-])c2nccnc2n1.Nc1nc([O-])c2nccnc2n1.[Ca+2] [DCP, dipterinyl calcium pentahydrate]
Plasma cytokines [1]; 2nd experiment, 23 mg/kg/d
  IL-5: 20.3 ± 10.2 pg/mL
  IFN-γ: 15.2 ± 4.9 pg/mL
  IL-4: 5.7 ± 1.7 pg/mL
  IL-12: 1141.7 ± 327.1 pg/mL
  IL-6: 49.6 ± 18.5 pg/mL
  IL-1β: 6.2 ± .8 pg/mL
Plasma cytokines [1]; 2nd experiment, 23 mg/kg/d, limit of detection 12.6
  IL-2: 12.7 ± .11 pg/mL
Plasma cytokines [1]; 2nd experiment, 23 mg/kg/d, limit of detection 24.6
  IL-10: 37.0 ± 12.4 pg/mL
Plasma cytokines [1]; 2nd experiment, 69 mg/kg/d
  IL-5: 24.9 ± 17.0 pg/mL
  IFN-γ: 29.9 ± 18.0 pg/mL
  IL-4: 4.0 ± .6 pg/mL
  IL-12: 1050.52 ± 238.7 pg/mL
  IL-6: 37.0 ± 11.3 pg/mL
  IL-1β: 5.3 ± .7 pg/mL
Plasma cytokines [1]; 2nd experiment, 69 mg/kg/d, limit of detection 31.2
  TGF-β1: 49.5 ± 18.3 pg/mL
[2]
  theoretical body fluid level [DCP]fluid: 220 µM
IDO; [6]
  serum Kyn: did not affect
  serum Kyn/Trp: did not affect
IDO; male HBV mice, 23.0 mg/(kg day)
  serum tryptophan (Trp) versus controls: significantly increased
[3]; male HBV mice, 2.3 mg/(kg day)
  serum chemokine RANTES versus controls: significant decrease
[3]; serum, female, 7.3 mg/(kg d)
  IL-4, Female levels (mean ± SEM): 241 ± 53 rel. pg/ml
  IL-9, Female levels (mean ± SEM): 185 ± 28 rel. pg/ml
  IL-12, Female levels (mean ± SEM): 642 ± 11 rel. pg/ml
[3]; serum, male, 7.3 mg/(kg d)
  IL-4, Male levels (mean ± SEM): 87 ± 28 rel. pg/ml
  IL-9, Male levels (mean ± SEM): 112 ± 13 rel. pg/ml
  IL-12, Male levels (mean ± SEM): 575 ± 17 rel. pg/ml
[4]; (1:2) 25, DCP 23 and 69, calcium chloride dihydrate 4.2 mg/kg/day
  MDA-MB-231 xenograph growth inhibition: significantly inhibit

## (1:4 mol:mol) calcium pterin [CaPterin]
Plasma cytokines [5]; Table 1, 7 mg/kg/day, plasma
  IL10: 41.9 ± 22.7 pg/mL
  IL-6: 114.7 ± 43.2 pg/mL
  IL-12: 7.7 ± 4.4 pg/mL
  TNF-α: 9.8 ± 1.5 pg/mL
Plasma cytokines [5]; Table 1, 7 mg/kg/day, plasma at sacrifice, n.d. = <3.2 pg/ml
  IL-1b: 5.2 ± 2.0 pg/mL
Plasma cytokines [5]; Table 1, 7 mg/kg/day, plasma, n.d. = <3.2 pg/ml
  IFN-γ: 4.7 ± 0.6 pg/mL
Plasma cytokines [5]; Table 1, 21 mg/kg/day, plasma
  IL10: 50.8 ± 32.3 pg/mL
  IL-6: 121.7 ± 78.1 pg/mL
  IL-12: 243.8 ± 237.8 pg/mL
  TNF-α: 8.5 ± 1.6 pg/mL
Plasma cytokines [5]; Table 1, 21 mg/kg/day, plasma at sacrifice, n.d. = <3.2 pg/ml
  IL-1b: 3.4 ± 0.2 pg/mL
Plasma cytokines [5]; [7]
  IFN-γ: 4.7 ± .8 pg/mL
  IL-12: 7.7 ± 4.4 pg/mL
  TNF-α: 9.8 ± 1.5 pg/mL
Plasma cytokines [5]; Table 4, 7 mg/kg/d, limit of detection 4.1
  IL-1β: 5.8 ± 1.7 pg/mL
Plasma cytokines [5]; Table 4, 7 mg/kg/d
  IL-10: 49.0 ± 17.0 pg/mL
Plasma cytokines [5]; Table 4, 7 mg/kg/d, plasma at sacrifice, limit of detection 3.9
  IL-6: 114.7 ± 43.2 pg/mL
Plasma cytokines [5]; [8]
  IL-12: 243.8 ± 237.8 pg/mL
  TNF-α: 8.5 ± 1.6 pg/mL
Plasma cytokines [5]; Table 4, 21 mg/kg/d
  IL-10: 61.5 ± 27.3 pg/mL
Plasma cytokines [5]; Table 4, 21 mg/kg/d, plasma at sacrifice, limit of detection 3.9
  IL-6: 121.7 ± 78.1 pg/mL
Plasma cytokines [5]; stepwise regression
  plasma IFN-γ response to dosage (ACIP model): decrease
  plasma IL-6 response to dosage (ACIP model): decrease
  plasma IL-10 response to dosage (ACIP model): increase
Plasma cytokines [1]; 2nd experiment, 21 mg/kg/d
  IL-5: 8.2 ± 1.4 pg/mL
  IFN-γ: 6.2 ± 2.4 pg/mL
  IL-12: 721.6 ± 19.1 pg/mL
  IL-1β: 5.0 ± .7 pg/mL
Plasma cytokines [1]; 2nd experiment, 21 mg/kg/d, plasma at sacrifice
  IL-6: 30.3 ± 10.2 pg/mL
Plasma cytokines [1]; at the dosages tested
  increases in plasma IL-12 (FIG. 10): lower, non-significant increases
[4]; 21 mg/kg/day, after 43 days
  T/C: 37%
